# Source: patent US20060247251A1, “2-Cyanopyrrolopyrimidines and pharmaceutical uses thereof” (priority 2003, published 2006)
# Biological target: recombinant human cathepsin S (Homo sapiens, UniProt P25774)
# Experiment: in vitro cathepsin S assay
# Type: biochemical
# Details: substrate Z-Leu-Leu-4-methylcoumaryl-7-amide, pH 7.0, ambient temperature, read-out: IC50 for the inhibition of human cathepsin S
# Experimental: The in vitro assay is carried out in clear, flat-bottomed, 96-well microtiter plates (Greiner GmbH, Germany) at ambient temperature using recombinant human cathepsin S. Inhibition of human cathepsin S is assayed at a constant enzyme and various substrate concentrations (substrate is Z-Leu-Leu-4-methylcoumaryl-7-amide (Bachem (Switzerland)) in 100 parts 0.2M sodium phosphate, pH 7.0, containing 2 mM EDTA, 2 parts 1% Triton X-100, 10 parts 20 mM dithlothreitol (DTT) and 58 parts distilled water. The assay is started by adding the enzyme solution (13 times higher concentration of final concentration of recombinant human Cathepsin S) to the reaction mixture containing various concentrations of the corresponding substrate and the compound. Substrate concentrations between 3.4 and 17 μM are used. The recombinant human Cathepsin S is used at a final concentration of 0.04 nM. Test compounds are used at concentrations between 0.4 and 2 times the determined IC50 of the compound at the enzyme. The relative fluorescence is continuously measured for 30 minutes and the initial velocity is obtained from each progress curve. […]
# Sequence of recombinant human cathepsin S (P25774 115-331): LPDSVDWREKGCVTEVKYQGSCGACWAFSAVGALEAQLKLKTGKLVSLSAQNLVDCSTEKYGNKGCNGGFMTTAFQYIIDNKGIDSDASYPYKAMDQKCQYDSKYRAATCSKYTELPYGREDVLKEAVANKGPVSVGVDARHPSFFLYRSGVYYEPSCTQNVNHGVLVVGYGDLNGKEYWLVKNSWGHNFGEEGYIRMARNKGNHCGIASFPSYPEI
row,SMILES,IC50 [nM]
1,"N#Cc1ncc2cc(Cc3ccc(N4CCCC4=O)cc3)n(CCC3CCCCC3)c2n1 [Example 179, 7-(2-Cyclohexyl-ethyl)-6-[4-(2-oxo-pyrrolidin-1-yl)-benzyl]-7H-pyrrolo[2,3-d]pyrimidine-2-carbonitrile]",35
2,N#Cc1ncc2cc(CN3CCCC3)n(CCC3CCCCC3)c2n1 [Example 278],33
3,"CC(=O)N1CCC2(CCN(Cc3cc4cnc(C#N)nc4n3CCC3CCCCC3)CC2)C1 [Example 335, 6-(2-Acetyl-2,8-diaza-spiro[4,5]dec-8-ylmethyl)-7-(2-cyclohexyl-ethyl)-7H-pyrrolo[2,3-d]pyrimidine-2-carbonitrile]",48

# The next compounds have a lower IC50 than those just listed; values first:
row,IC50 [nM],SMILES
1,32,CCCNC(=O)c1ccc(OCc2cc3cnc(C#N)nc3n2CCC2CCCCC2)c(Cl)c1 [Example 54]
2,30,N#Cc1ncc2cc(Cc3ccc(F)c(F)c3)n(CCc3ccc(Cl)cc3)c2n1 [Example 169]
3,5.1,CC(C)(C)CCn1c(Cc2ccc(CO)cc2)cc2cnc(C#N)nc21 [Example 175]
4,4.1,CC(C)CCn1c(Cc2cccs2)cc2cnc(C#N)nc21 [Example 193]
